Results on eleven compounds are retold here after patent US4321267A, “1-Substituted-4 (1H)-pyridinone hydrazones active against Giardia lamblia and Trichomonas vaginalis” (priority 1980, dated 1982).

The test system of series [1] is Giardia lamblia. The series is described as follows: In vitro anti-Giardia lamblia activity (multiwell culture, viable count by hemacytometer, 24 h). Particulars: Giardia duodenalis, 50% inhibition of growth, 37° C., about 16-24 hours, anaerobic, read-out: Anti-G. lamblia ED50. It is filed as cell-based. As to the method:
(§1) About 1.0-2.0 ml of a nutrient medium, for example, the modified Diamond's (TPS) medium at pH 7.05, together with about 10% by volume of heat-inactivated serum and about 1% by volume of an antibiotic-antimycoticmixture, is placed in each well of a multi-well plate. To this mixture, an aliquot of a suspension of G. lamblia cells containing about 10^6 organism is added. Subsequently, each well is inoculated with a known concentration of one of the pyridinone hydrazones, for example, 1-[(4-chlorophenyl)-4(1H)-pyridinone]-2-[(4-chlorophenyl)methylene]-hydrazone. The multiwell plate containing the individual culture samples is incubated under anaerobic conditions at about 37° C. for about 16-24 hours. The number of viable cells remaining in each well are then counted, such as with a hemocytometer. The percentage of survival is determined by comparison to controls incubated with DMSO (dimethylsulfoxide) and the effective concentration (in parts per million) for 50% inhibition of growth (ED50) is determined. It is established that the lower the ED50 the higher the activity of the 1-substituted-4-(1H)-pyridinone hydrazone tested.
(§2) In each well of a multiwell plate is placed 1.4 ml of Diamond's TPS medium (See Table II) at pH 7.05, 10% by volume of heat-inactivated fetal bovine serium, and 1% by volume of an antibiotic-antimycotic solution (see Table III). A suspension of Giardia lamblia is centrifuged at 2,500 xg for 6 minutes. The pelleted cells are resuspended in a small volume of Diamond's medium, the cells are counted and each well inoculated with approximately 10^6 organisms. A stock solution of 1-[(4-chlorophenyl)-4(1H)-pyridinone]-2-[(4-methylthiophenyl)-methylene]hydrazone in dimethylsulfoxide is made at a concentration of 150 μg/ml. The wells are then inoculated with various concentrations of the drug. The plates are incubated for 24 hours at 37° C. in an anaerobic Gas Pak jar. After 24 hours of incubation, each well is mixed and counted for viable organisms using a hemacytometer. The percentage of survival is determined by comparing the treated wells to controls treated with dimethylsulfoxide.

In series [2] the test system is Trichomonas vaginalis. The series is described as follows: In vitro anti-Trichomonas vaginalis activity (method of Example 1). It is filed as cell-based, T. vaginalis 30001. Particulars: for IC50: Trichomonas vaginalis, 37° C., 24 hours, read-out: Anti-T. vaginalis ED50; for activity against T. vaginalis (in words): method of Example 1. How it is done: as §1, §2
Employing the method of Example 1, centrifuged cells of T. vaginalis 30001 are incubated with 1-[(4-chlorophenyl)-4(1H)-pyridinone]-2-[(4-methylthiophenyl)methylene]hydrazone at 37° C. for 24 hours.

The subject of series [3] is Giardia lamblia. The conditions noted are these: humans; cited from earlier work.
For series [4] the following is noted: humans; cited from earlier work.
For series [5] the following is noted: in animals; cited from earlier work.
Series [6] concerns Trichomonas vaginalis. The conditions noted are these: humans; cited from earlier work.

≈ marks a conversion by molar mass, not a printed value.

Turning to `Clc1ccc(C=NN=c2ccn(-c3ccc(Cl)cc3)cc2)cc1` [(1), 1-[(4-chlorophenyl)-4(1H)-pyridinone]-2-[(4-chlorophenyl)methylene]hydrazone], in the series on Giardia lamblia [1], the IC50 worked out at 1.45 µg/mL (≈ 4.24 µM). Besides, in the series on Trichomonas vaginalis [2], the IC50 stood at 2.63 µg/mL (≈ 7.68 µM) and the “activity against T. vaginalis (in words)” value was “active against T. vaginalis”.

For the compound `N#Cc1ccc(C=NN=c2ccn(-c3ccc(Cl)cc3)cc2)cc1` [(2), 1-[(4-chlorophenyl)-4(1H)-pyridinone]-2-[(4-cyanophenyl)methylene]hydrazone], in the series with Giardia lamblia [1], the IC50 was 2.25 µg/mL (≈ 6.76 µM). In the series with Trichomonas vaginalis [2], the IC50 turned out to be 3.3 µg/mL (≈ 9.92 µM) and the “activity against T. vaginalis (in words)” value is recorded as “active against T. vaginalis”.

`CSc1ccc(C=NN=c2ccn(-c3ccc(Cl)cc3)cc2)cc1` [(3), 1-[(4-chlorophenyl)-4(1H)-pyridinone]-2-[(4-methylthiophenyl)methylene]hydrazone]: in the series with Giardia lamblia [1], the IC50 turned out to be 1.1 µg/mL (≈ 3.11 µM). In addition, in the series on Trichomonas vaginalis [2], the IC50 came out at 2.88 µg/mL (≈ 8.14 µM) and the “activity against T. vaginalis (in words)” value is reported as “effective anti-T. vaginalis agent”.

Take `Clc1ccc(-n2ccc(=NN=Cc3ccc(Cl)c(Cl)c3)cc2)cc1` [(4), 1-[(4-chlorophenyl)-4(1H)-pyridinone]-2-[(3,4-dichlorophenyl)methylene]hydrazone]: the IC50 in the series with Giardia lamblia [1] worked out at 1.5 µg/mL (≈ 3.98 µM); in the series with Trichomonas vaginalis [2] it was 3 µg/mL (≈ 7.96 µM).

In the case of `FC(F)(F)c1ccc(C=NN=c2ccn(-c3ccc(Cl)cc3)cc2)cc1` [(5), 1-[(4-chlorophenyl)-4(1H)-pyridinone]-2-[(4-trifluoromethylphenyl)methylene]hydrazone], the IC50 in the series on Giardia lamblia [1] was determined as 1.42 µg/mL (≈ 3.78 µM); in the series with Trichomonas vaginalis [2], 3.25 µg/mL (≈ 8.65 µM).

For `Clc1ccc(-n2ccc(=NN=Cc3ccc(Br)cc3)cc2)cc1` [(6), 1-[(4-chlorophenyl)-4(1H)-pyridinone]-2-[(4-bromophenyl)methylene]hydrazone], the IC50 in the series with Giardia lamblia [1] is 1.25 µg/mL (≈ 3.23 µM); in the series on Trichomonas vaginalis [2], 3.63 µg/mL (≈ 9.39 µM).

As for `Clc1ccc(-n2ccc(=NN=Cc3ccc(Cl)cc3Cl)cc2)cc1` [(7)], the IC50 was 1.2 µg/mL (≈ 3.19 µM) in the series on Giardia lamblia [1] and 1.75 µg/mL (≈ 4.65 µM) in the series with Trichomonas vaginalis [2].

Turning to `Fc1ccc(C=NN=c2ccn(-c3ccc(Cl)cc3)cc2)cc1` [(8), 1-[(4-chlorophenyl)-4(1H)-pyridinone]-2-[(4-fluorophenyl)methylene]hydrazone], the IC50 amounted to 2.25 µg/mL (≈ 6.91 µM) with Giardia lamblia [1] and 4 µg/mL (≈ 12.3 µM) in the series with Trichomonas vaginalis [2].

For `CCN(CC)CCCC(C)Nc1c2ccc(Cl)cc2nc2ccc(OC)cc12` (stereo not drawn) [Atabrine], the “treatment of giardiasis infection” value with Giardia lamblia [3] is on record as “successfully treated”.

Take `O=C1OCCN1/N=C/c1ccc([N+](=O)[O-])o1` [furazolidone]: the adverse side effects result in series [4] was “adverse side effects”. In the series with Giardia lamblia [3], the “treatment of giardiasis infection” value is recorded as “successfully treated”.

Turning to `Cc1ncc([N+](=O)[O-])n1CCO` [metronidazole], the IC50 with Giardia lamblia [1] was 6.2 µg/mL (≈ 36.2 µM); with Trichomonas vaginalis [2], less than 1 µg/mL. Further, in series [5], the carcinogenicity result is given as “carcinogenic in animals”. For the same compound, the therapy of trichomoniasis entry in the series on Trichomonas vaginalis [6] is listed as “Successful therapy of trichomoniasis”. Besides, in the series on Giardia lamblia [3], the “treatment of giardiasis infection” value is on record as “successfully treated”.
